Patent US20240182526A1, “COMPOSITIONS AND METHODS FOR MODULTING INFLAMMATORY AND DEGENERATIVE DISORDER” (University of Southern California, priority 2021, published 2024)
Entries after “also recorded” stand apart in the source; their conditions may differ. Where no end group is shown, it is not given here. [ ]: non-standard residue; d: D form. pY = N[C@@H](Cc1ccc(OP(=O)(O)O)cc1)C(=O)O

Columns and labels:
[1] = tested on: rat medial meniscectomy and cartilage surface injury models; conditions: cited from earlier work
[2] = tested on: gp130 receptor signaling; conditions: previous studies; cited from earlier work
[3] = tested on: adult and pig articular cartilage; conditions: cited from earlier work
[4] = tested on: pNF-κB p65; test: Western blot of pNF-κB p65 in pig articular chondrocytes; format: cell-based; conditions: for protein levels of pNF-κB p65 after OSM stimulation: pig articular chondrocytes, 24 hours
Method: (§1) For standard western blot, treated and non-treated cells were lysed in RIPA Lysis and Extraction Buffer (Pierce, Rockford, IL) containing protease inhibitors (Pierce) followed by sonication with a 15-second pulse at a power output of 2 using the VirSonic 100 (SP Industries Company, Warminster, PA). Protein concentrations were determined by BCA protein assay (Pierce). Proteins were resolved with SDS-PAGE utilizing 4-15% Mini-PROTEAN TGX Precast Gels and transferred to Trans-Blot Turbo Transfer Packs with a 0.2-μm pore-size nitrocellulose membrane. The SDS-PAGE running buffer, 4-15% Mini-PROTEAN TGX Precast Gels, Trans-Blot Turbo Transfer Packs with a 0.2-μm pore-size nitrocellulose membrane was purchased from Biorad (Hercules, CA). Nitrocellulose membranes were blocked in 5% nonfat milk in 0.05% (v/v) Tween 20 (PBST) (Corning, Manassas, VA). Membranes were then incubated with primary antibodies p-gp130 Y814 (Evseenko lab, AbClonal), p-AKT (cat #4060, Cell Signaling), p-ERK 1/2 (cat #9106, Cell Signaling), p-Y416-SRC (cat #1246F, Novus Biologicals), p-gp130 (cat #1453R, Bioss USA) and p-NFκBp65 (cat #8242, Cell Signaling), and/or YAP1 (cat #4912, Cell Signaling). Histone H3 (cat #9515, Cell Signaling) was used as loading control. After washing in PBS containing 0.05% (v/v) Tween 20 (PBST), membranes were incubated with rabbit (cat #31460, Thermo Scientific) or mouse IgG-HRP (cat #31430, Thermo Scientific) secondary antibodies. After washing, membranes were developed with the Clarity Western ECL Blotting Substrate (Hercules, CA). Quantification of blots was performed using ImageJ 1.44 followed by Prism9 for analysis.

[5] = tested on: ADAMTS4, ADAMTS5 and MMP13 transcription; test: qPCR of matrix-degrading genes in OSM-stimulated pig articular chondrocytes; format: cell-based; conditions: 48 hours
Method: (§2) Quantitative Real-Time PCR. Power SYBR Green (Applied Biosystems) RT-PCR amplification and detection was performed using an Applied Biosystems Step One Plus Real-Time PCR machine. The comparative Ct method for relative quantification (2-ΔΔCt) was used to quantitate gene expression. TBP (TATA-box binding protein) was used for gene normalization and expressed relative to a calibrator (sample in each set with lowest expression). Q-PCR for was conducted using the following primers: human: TBP forward, 5′ GATGGACGTTCGGTTTAGG 3′ (SEQ ID NO:28); TBP reverse, 5′ AGCAGCACAGTACGAGCAA 3′ (SEQ ID NO:29), MMP13 forward, 5′ […] 3′(SEQ ID NO:30); MMP13 reverse, 5′ GAACCCCGCATCTTGGCTT 3′ (SEQ ID NO:31), ADAMTS5 forward 5′ […] 3′ (SEQ ID NO:32); ADAMTS5 reverse, 5′ […] 3′ (SEQ ID NO:33), ADAMTS4 forward 5′ […] 3′ (SEQ ID NO:34); ADAMTS4 reverse, 5′ […] 3′ (SEQ ID NO:35), Collagen II forward, 5′ […] 3′ (SEQ ID NO:36); Collagen II reverse 5′ […] 3′ (SEQ ID NO:37); Aggrecan forward, 5′ AGGCAGCGTGATCCTTACC 3′ (SEQ ID NO:38); Aggrecan reverse, 5′ […] 3′ (SEQ ID NO:39). Cells were treated with 10 ng/mL OSM and/or with 5 μM SRC (SU6656) inhibitor, 10 ng/mL OSM and/or 50 ng/mL WT/F814 plasmids; 10 ng/mL OSM and/or 100 or 300 ug/mL of peptide QQpYF (Evseenko lab, Thermo Scientific); 10 uM R805 and/or 10 ng/mL OSM.

[6] = target: T1, pSRC (Homo sapiens, UniProt P12931); test: Western blot of pSRC in human synovium stimulated with OSM; format: cell-based; conditions: with or without OSM, 24 hours
T1 construct: from tissue; host or cells: human synovium
Method: as §1, with “After washing in PBS containing 0.05% (v/v) Tween 20 (PBST), membranes were incubated with rabbit (cat #31460, Thermo Scientific) or mouse IgG-HRP (cat #31430, Thermo Scientific) secondary antibodies. After washing, membranes were developed with the Clarity Western ECL Blotting Substrate (Hercules, CA).” left out

[7] = tested on: pNF-kB p65; test: Western blot of pNF-kB p65 in human synovium stimulated with OSM; format: cell-based; conditions: with or without OSM, 24 hours
Method: as §1, with “After washing in PBS containing 0.05% (v/v) Tween 20 (PBST), membranes were incubated with rabbit (cat #31460, Thermo Scientific) or mouse IgG-HRP (cat #31430, Thermo Scientific) secondary antibodies. After washing, membranes were developed with the Clarity Western ECL Blotting Substrate (Hercules, CA).” left out

[8] = tested on: pSRC; test: Western blot of pSRC in pig articular chondrocytes; format: cell-based; conditions: for protein levels of pSRC after OSM stimulation: pig articular chondrocytes, 4 and 24 hours
Method: as §1
(§3) The studies delineate that gp130 Y814 regulates SRC downstream signaling; since SRC is known to associate with gp130, it was hypothesized that gp130 and SRC are capable of physically interacting on Y814 and hindering this interaction will prevent SRC from signaling. In order to impede this interaction, experiments were performed using an innovative peptide library screen with short and overlapping peptides mimicking the motif of gp130 around Y814 that were individually tested for pSRC downregulation; these peptides ranged from 4-15 amino acids. The peptides contained a protein sequence stretch of consecutive amino acids surrounding gp130 Y814 residue. To test their efficacy, pig articular chondrocytes were stimulated with or without OSM in presence or absence of the peptides followed by co-immunoprecipitation to determine interaction and western blot detecting pSRC activity. […] Due to sequence specificity, the peptide is capable of discriminating among other gp130 regions serving as a competitive inhibitor.

[9] = tested on: gp130 and pSRC; test: Co-immunoprecipitation of complex formation between gp130 and pSRC in pig articular chondrocytes; format: cell-based; conditions: pig articular chondrocytes with or without OSM, 4 and 24 hours
Method: IP Western, SDS-PAGE and Western blot analysis. For transfections of gp130 wild type (WT) (InVivoGen) and gp130 mutant plasmids (Thermo Scientific), cells were plated 24 h prior to transfection to produce monolayers that were 60% confluent and these were transfected by using Turbo DNAfectin 3000 (cat #G3000, Lambda Biotech) according to the manufacturer's protocol. 72h after transfection, cells were maintained in DMEM (10% FBS, 1% PSA) and were either left untreated or were stimulated with IL-6 (10 ng/mL) and/or OSM (10 ng/mL) for 24 h before cell harvest and protein extraction. For immunoprecipitation assays, cell lysates were incubated with Protein G Agarose (cat #20398, Pierce) and anti-Flag antibody (cat #2368, Cell Signaling) at 4° C. overnight. The immune complexes were sedimented, washed and separated by SDS-PAGE (see below) and further analyzed by Western blot using p-SRC (pY416-SRC) (cat #1246F, Novus Biologicals) or NEMO (cat #18474-1-AP, Proteintech) antibodies and normalized to gp130 (cat #bs-1459R, Bioss) or total SRC (cat #2123, Cell Signaling). For R805 treatment, the immune complexes were sedimented, washed and separated by SDS-PAGE and further analyzed by Western blot using OSMR (cat #ab85575, Abcam), LIFR (Santa cat #515337, Cruz Biotechnology) or p-SRC (pY416-SRC) (Novus Biologicals, cat #1246F). Histone H3 (cat #9715, Cell Signaling), gp130 (cat #bs-1459R, Bioss), total SRC (cat #2123, Cell Signaling) or Flag antibody (cat #14739, Cell Signaling) were used as loading controls.
as §3

[10] = tested on: cleaved ACAN and COL2 neoepitopes; test: Neoepitope assay on pig articular cartilage explants stimulated with OSM; format: cell-based; conditions: 72 hours, normalized to wet weight
Method: Neoepitope analysis. WT and F814 mouse articular cartilage explants were treated with or without OSM (10 ng/mL). Pig articular cartilage explants were stimulated with or without OSM (10 ng/mL) and treated with or without peptide QQpYF (100 μg/mL or 300 μg/mL). For R805 treatment, pig articular cartilage explants were stimulated with or without OSM (10 ng/mL) and treated with or without R805 (0.01, 0.1, 1 or 10 μM). The explants were then digested for 2 hr at 37° C. with 0.01 units chondroitinase ABC (Sigma Aldrich, St. Louis, MO). Samples were then dialyzed with ultrapure water for 24 hr at 4° C., freeze dried, dissolved in RIPA Lysis and Extraction Buffer (Pierce, IL) containing protease inhibitors (Pierce) followed by sonication. Proteins were separated and analyzed by Western blot using primary antibodies against aggrecan (cat #NB100-74350, Novus Biologicals,) and collagen II neoepitopes (cat #50-1035, Ibex). Wet weight of explants was used as loading control.

[11] = tested on: ADAMTS4/5, MMP13, COL2 and ACAN transcription; test: qPCR of catabolic and anabolic genes in human adult OA articular chondrocytes; format: cell-based; conditions: 48 hours
Method: as §2

[12] = pig articular chondrocytes treated with peptides for 24 hours, no OSM

Brc1ccc(Nc2nc(-c3ccccc3)cs2)cc1 [RCGD 423]
cartilage regeneration [1]: promotes cartilage regeneration | STAT3 signaling and downstream MYC [2]: highly activate STAT3 signaling and its downstream target, proto-oncogene MYC | activation of MAPK/ERK and NF-κB pathways [2]: prevents activation of MAPK/ERK and NF-κB pathways | articular cartilage degeneration [3]: protects adult and pig articular cartilage from degeneration

CN(C)S(=O)(=O)c1ccc2c(c1)/C(=C/c1cc3c([nH]1)CCCC3)C(=O)N2 [SU6656, reference compound]
protein levels of pNF-κB p65 after OSM stimulation [4]: can be blocked by SRC inhibition | OSM-induced transcription of matrix-degrading genes (ADAMTS4, ADAMTS5, MMP13), qPCR [5]: can be blocked by SRC inhibition

PRQQ[pY]FKQ [Peptide 5]
endogenous protein levels of NF-kB p65 [4, 12]: inhibits endogenous SRC and NF-kB protein expression | protein levels of pSRC [6]: inhibits SRC and NF-kB protein expression | protein levels of pNF-kB p65 [7]: inhibits SRC and NF-kB protein expression | endogenous protein levels of phosphorylated c-SRC (pSRC) [8, 12]: inhibits endogenous SRC and NF-kB protein expression

QQ(PY)F (QQYF) [Peptide P2A, 4 amino acid SRC-targeting interfering peptide, Gln-Gln-phosphoTyr-Phe]
protein levels of pNF-κB p65 after OSM stimulation [4]: decreasing SRC and NF-κB activation; also recorded: significant effect on decreasing SRC and NF-κB signaling | complex formation between gp130 and pSRC (gp130-SRC interaction) [9]: most efficacious at physically hindering gp130-SRC protein-protein interaction | complex formation between gp130 and pSRC (gp130-SRC interaction) ([9]; listed as QQ[pY]F): most efficacious at physically hindering gp130-SRC protein-protein interaction | complex formation between gp130 and pSRC (gp130-SRC interaction) ([9]; listed as QQpYF): prevents physical interaction of gp130 and SRC | matrix degeneration: levels of cleaved ACAN and COL2 neoepitopes [10]: prevented matrix degeneration in pig cartilage explants; also recorded: sustained prevention of catabolism; also recorded: prevents degeneration in pig cartilage explants; also recorded: dose dependent | matrix degeneration: levels of cleaved ACAN and COL2 neoepitopes ([10]; listed as QQpYF): decrease of aggrecanase and collagenase activity | biosynthesis (COL2 and ACAN transcription), qPCR [11]: promotes biosynthesis | transcription of catabolic enzymes (ADAMTS4/5 and MMP13), qPCR [11]: decreased transcription of catabolic enzymes; also recorded: inhibits transcription of matrix degrading genes | biosynthesis (COL2 and ACAN transcription), qPCR ([11]; listed as QQpYF): increased | transcription of catabolic enzymes (ADAMTS4/5 and MMP13), qPCR ([11]; listed as QQpYF): markedly lower | protein levels of pSRC after OSM stimulation [8]: decreasing SRC and NF-κB activation; also recorded: significant effect on decreasing SRC and NF-κB signaling; also recorded: inhibits SRC activity | protein levels of pSRC after OSM stimulation ([8]; listed as QQ[pY]F): decreasing pSRC activation | protein levels of pSRC after OSM stimulation ([8]; listed as QQpYF): inhibits activation of SRC downstream of gp130
